Experimental data reported in patent US20060167276A1, “Clausenamide c5-hydroxyl derivatives and n-substituted derivatives, processes for their preparation, its composition and use” (priority 2002, published 2006).

How the values were obtained:
[1] = system: C17-2 mouse brain neural stem cells; test: Cell proliferation of mouse brain neural stem cells (MTT, OD 490 nm); assay type: cell-based; settings: for Cell proliferation %: control group = 100%; for promotion effects on cell proliferation of mouse brain neural stem cells: at doses of 0.1 μM and 1 μM
Description: C17-2 mouse brain neural stem cells (C17-2 cells) were continuously cultured in 1640 medium with 10% horse serum and 10% fetal bovine serum at 5% CO2 and 37° C., dissociated to single cell suspension by 0.1% trypsin solution, centrifuged at 1,000 rpm×5 min and rinsed with medium. The cells were seeded in a 96-well plate, 1×10^3 cells per well, 3 well per group, continuously cultured. After 24 hours, the test compounds were added, doses of each of the C5-hydroxyl substituted clausenamides and N-substituted clausenamide derivatives were 0.1 μM, 1 μM and 10 μM respectively. The growth situation of the cells was observed under a microscope, once daily. At the 4th day, media in each well were pipetted, phosphate buffer solution containing MTT was added. 4 Hours later, the fluid was discarded, and a DMSO solution was added. The cells were incubated at 37° C. for 10 min under shaken. OD values on 490 nm of each well were detected. Set the growth rate of the control group as 100%, and the growth rates of each dose were given by comparison with the control group and t-tested.

[2] = system: rat hippocampus; test: LTP / synaptic transmission in rat hippocampus (population spike amplitude, dentate gyrus); assay type: in vivo; settings: for Relative PS (PSA %): lateral ventricle, prior administration = 100; for effects on synaptic transmission: P<0.05 vs. control, n=5
Source text: Male adult SD Rats (5 per group) were anesthetized with 20% (w/v) urethane carbamate (1.0 g·kg^−1, ip) and fixed in a stereotaxic head holder. According to the reference of Pellegrino stereotaxic spectrum of rat, recording electrodes (stainless steel needle of 0.2 mm diameter were insulted except for 0.2 mm tip) were placed in the dentate gyrus granule cell layer. The stimulating electrodes (two stainless steel needles of 0.15 mm diameter coated with Teflon except for the 0.2 mm tip, and the distance between two needles was 0.5 mm) were planted between the fibre of perforant path (PP) in rat. Continuous pulse was provided by electronic stimulator, and delivered to PP through stimulus isolator and stimulating electrodes. Electrode depth was then adjusted until a typical excitatory postsynaptic potential (EPSP) was observed. Electric current was magnified by amplifier and collected by computer, then processed by DataWave software. The stimulus intensity was adjusted to produce population spike (PS) with a slope that was ≈50% of the maximum. Single-pulse test stimuli were at an interval of 30 sec during the experiment. Population spike amplitude (PSA) was recorded and the relatively percent of PSA was calculated according to the formula (PSA/basic value).

[3] = dose 10^−5 M, MTT at 4th day, OD 490 nm
[4] = dose 10^−6 M, MTT at 4th day, OD 490 nm
[5] = dose 10^−7 M, MTT at 4th day, OD 490 nm

| Molecule | Result (OD value) [1, 3] | Cell proliferation % ([1]; dose 10^−5 M) | Result (OD value) [1, 4] | Cell proliferation % ([1]; dose 10^−6 M) | Result (OD value) [1, 5] | Cell proliferation % ([1]; dose 10^−7 M) | Relative PS (PSA %) ([2]; 15 min after administration) | Relative PS (PSA %) ([2]; 30 min after administration) | Relative PS (PSA %) ([2]; 45 min after administration) | Relative PS (PSA %) ([2]; 60 min after administration) | effects on synaptic transmission [2] | effects on cell proliferation of mouse brain neural stem cells (conclusion) [1] | promotion effects on cell proliferation of mouse brain neural stem cells [1] | Result (OD value) ([1]; positive control, dose 5 mg/L) | Cell proliferation % ([1]; positive control, dose 5 mg/L) |
| --- | --- | --- | --- | --- | --- | --- | --- | --- | --- | --- | --- | --- | --- | --- | --- |
| NC(=O)CN1C(=O)C(O)C(c2ccccc2)C1C(O)c1ccccc1 (racemic) [(±)III1, N-(aminocarbonyl-methylene)-norclausenamide] | 0.104 ± 0.009 | 75.91% | 0.205 ± 0.006 | 149.64% | 0.240 ± 0.017 | 175.18% | 85.24 ± 17.41% | 79.82 ± 22.33% | 96.00 ± 19.78% | 117.37 ± 13.49% |  |  |  |  |  |
| O=C(O)CN1C(=O)C(O)C(c2ccccc2)C1C(O)c1ccccc1 (racemic) [(±)III2] | 0.100 ± 0.018 | 72.99% | 0.175 ± 0.006 | 127.74% | 0.218 ± 0.012 | 159.12% | 99.41 ± 9.27% | 117.34 ± 14.74% | 140.2 ± 10.96 % | 153.36 ± 13.23 % |  |  |  |  |  |
| CC(=O)OCN1C(=O)C(O)C(c2ccccc2)C1C(O)c1ccccc1 (racemic) [(±)III3, N-acetoxymethylene-norclausenamide] |  |  |  |  |  |  |  |  |  |  | significantly upstanding effects |  |  |  |  |
| Cc1cccc(C)c1NC(=O)CN1C(=O)C(O)C(c2ccccc2)C1C(O)c1ccccc1 (racemic) [(±)III5] | 0.171 ± 0.035 | 124.82% | 0.227 ± 0.011 | 165.69% | 0.304 ± 0.051 | 221.90% | 87.51 ± 19.57% | 97.43 ± 32.15% | 111.47 ± 46.02% | 137.15 ± 57.17% |  | significant effects | significant promotion effects |  |  |
| O=C1C(O)C(c2ccccc2)C(C(O)c2ccccc2)N1Cc1ccccc1 (racemic) [(±)III8] | 0.096 ± 0.022 | 70.07% | 0.144 ± 0.038 | 105.11% | 0.221 ± 0.043 | 161.31% | 67.75 ± 26.84% | 68.48 ± 21.15% | 79.25 ± 16.62% | 98.97 ± 14.26% |  |  |  |  |  |
| COc1ccc(CN2C(=O)C(O)C(c3ccccc3)C2C(O)c2ccccc2)cc1 (racemic) [(±)III9] | 0.120 ± 0.027 | 87.59% | 0.138 ± 0.012 | 100.73% | 0.212 ± 0.011 | 154.74% | 115.6 ± 17.94% | 107.18 ± 20.09% | 103.77 ± 15.36% | 112.72 ± 8.95% |  |  |  |  |  |
| CN1C(=O)C(O)C(c2ccccc2)C1=Cc1ccccc1 (single isomer, unassigned) [(−)Δ^5,6-I, (−)-Δ^5,6-clausenamide] | 0.076 ± 0.016 | 55.47% | 0.165 ± 0.011 | 120.44% | 0.246 ± 0.005 | 179.56% | 123.37 ± 14.80% | 138.79 ± 10.94 % | 158.89 ± 23.04 % | 181.50 ± 35.88 % | significantly upstanding effects |  |  |  |  |
| CC(=O)OCN1C(=O)C(O)C(c2ccccc2)C1C(O)c1ccccc1 (single isomer, unassigned; (-)) [(−)III3, N-acetoxymethylene-norclausenamide] | 0.061 ± 0.007 | 44.53% | 0.147 ± 0.021 | 107.30% | 0.217 ± 0.024 | 158.39% | 90.33 ± 16.11% | 100.15 ± 7.48% | 118.33 ± 25.07% | 141.37 ± 30.83% |  |  |  |  |  |
| CN1C(=O)[C@@H](O)[C@H](c2ccccc2)[C@]1(O)[C@H](O)c1ccccc1 [(+)II1, (+)-(3S,4S,5S,6R)-5-hydroxy-clausenamide] | 0.093 ± 0.007 | 67.88% | 0.264 ± 0.036 | 192.70% | 0.250 ± 0.016 | 182.48% | 144.86 ± 49.53% | 168.02 ± 49.16% | 194.32 ± 56.65 % | 233.24 ± 55.62 % | significantly upstanding effects |  |  |  |  |
| CN1C(=O)[C@@H](O)[C@H](c2ccccc2)[C@@]1(O)[C@@H](O)c1ccccc1 [(+)II2, (+)-(3S,4S,5R,6S)-5-hydroxy-clausenamide] | 0.076 ± 0.008 | 55.47% | 0.220 ± 0.023 | 160.58% | 0.175 ± 0.059 | 127.74% | 81.48 ± 6.13% | 77.33 ± 8.93% | 82.56 ± 1.87% | 99.92 ± 6.26% |  |  |  |  |  |
| CN1C(=O)[C@H](O)[C@@H](c2ccccc2)[C@@]1(O)[C@H](O)c1ccccc1 [(+)II3, (+)-(3R,4R,5R,6R)-5-hydroxy-clausenamide] | 0.131 ± 0.009 | 95.62% | 0.199 ± 0.024 | 145.26% | 0.253 ± 0.020 | 184.67% | 91.74 ± 17.21% | 117.87 ± 14.93% | 161.14 ± 13.94 % | 188.03 ± 5.28 % | significantly upstanding effects | significant effects | significant promotion effects |  |  |
| CC(=O)O[C@@H]1C(=O)N(C)[C@@](O)([C@H](O)c2ccccc2)[C@H]1c1ccccc1 [(−)-3-O-AC-II1, (−)-(3S,4S,5S,6R)-3-O-acetyl-5-hydroxy-clausenamide] | 0.063 ± 0.014 | 45.99% | 0.072 ± 0.006 | 52.55% | 0.179 ± 0.004 | 130.66% | 78.91 ± 13.90% | 83.73 ± 13.59% | 94.60 ± 8.87% | 102.66 ± 2.88% |  |  |  |  |  |
| CN1C(=O)[C@H](O)[C@@H](c2ccccc2)[C@@]1(O)[C@@H](O)c1ccccc1 [(−)II1, (−)-(3R,4R,5R,6S)-5-hydroxy-clausenamide] | 0.126 ± 0.016 | 91.97% | 0.236 ± 0.049 | 172.26% | 0.256 ± 0.020 | 186.86% |  |  |  |  |  | significant effects | significant promotion effects |  |  |
| CN1C(=O)[C@H](O)[C@@H](c2ccccc2)[C@]1(O)[C@H](O)c1ccccc1 [(−)II2, (−)-(3R,4R,5S,6R)-5-hydroxy-clausenamide] | 0.156 ± 0.095 | 113.87% | 0.163 ± 0.038 | 118.98% | 0.233 ± 0.033 | 170.07% | 110.55 ± 7.27% | 103.09 ± 10.12% | 94.49 ± 10.53% | 88.40 ± 14.42% |  |  |  |  |  |
| fibroblast growth factor [FGF, reference compound] |  |  |  |  |  |  |  |  |  |  |  |  |  | 0.340 ± 0.035 | 248.17% |
